Columns and labels:
[1] = system: dynamin 2; settings: dynamin 2 inhibitor, value stated in the list of known inhibitors; cited from earlier work
[2] = system: mitochondrial division; settings: mitochondrial division inhibitor; cited from earlier work
[3] = system: Dnm2 mRNA; assay: Dnm2 mRNA expression by RT-qPCR in C2C12 cells; assay type: cell-based; settings: C2C12 mouse myoblast cells, 24 hrs, 20 µM (with PBS control, or with ASO-ctrl)
Description: For experiments in mouse immortalized myoblasts (C2C12 cells), the ASOs were electroporated at 2 µM in 2 mm cuvettes, at 150V for 5 ms (one pulse) for 2 million cells in a volume of 400 µl PBS, or in 4mm cuvettes, at 300V for 5 ms (one pulse) for 4 million cells in a volume of 800 µl PBS. Table 2. Antisense oligonucleotides
For experiments conducted in mouse immortalized myoblasts (C2C12 cells), 4-hydroxytamoxifen (5 mg/ml solution, Sigma #SML-1666) was used. The stock solution at 13mM in ethanol:isopropanol (95:5) was diluted in cell culture medium to obtain a working concentration of 20 µM. For vehicle control cells (no treatment), ethanol:isopropanol (95:5) was added to the cell culture medium.
The […] immortalized myoblast cells were cultured in DMEM with 1g/l glucose (Gibco) with 20% FBS (Gibco) + 40 µg/ml Gentamycin (Gibco). The cells were electroporated with either PBS, ASO-ctrl or ASO-Dnm2 at 2 µM, and/or treated with 4-OH-tamoxifen at 20 µM in the cell culture medium, as described in 1.1. The experiment was done in duplicate wells, in 6-well plates. After 24 hrs of treatment, cells were collected and either RNA was extracted for RT-qPCR or protein was extracted for Western Blot. […]

[4] = system: Mtm1^-/y mice; assay: Body weight of Mtm1-/y mice; assay type: in vivo; settings: at 12 weeks, mean ± SD, ASO 3 mg/kg i.p. weekly, tamoxifen 10 mg/kg of diet
Description: (§1) For experiments in mice, the ASOs were injected intraperitonally (i.p.) weekly from 4 weeks to 12 weeks of age at 3 mg/kg.
(§2) For experiments in mice, pellets of diet were supplemented with tamoxifen citrate (SAFE; […]) to achieve 10 mg of tamoxifen free base per kg of chow. Pellets of diet devoid of tamoxifen were used as a control (to be administered with ASO-ctrl).
(§3) Mtm1 deficient mice in the 129Pas genetic background were obtained from Dr. Laporte (IGBMC, Illkirch, France). Wild type males were bred with Mtm1^+/- heterozygous females. The Mtm1^+/y (wild type, i.e. WT) and Mtm1^-/y (mutant) males in the progeny were used in the experiments. The Mtm1^-/y knock-out mice reproduce the hallmarks of XL-CNM patients such as abnormal position of the organelles, defects in the localization of the nuclei and muscle atrophy, associated with progressive muscle weakness including respiratory weakness, leading to death between 6 and 14 weeks of age (Buj-Bello et al., Proc Natl Acad Sci USA, 2002; 99: 15060-15065; Al-Qusairi,et al, Proc Natl Acad Sci USA, 2009; 106: 18763-18768).
Weekly i.p. injections of 3 mg/kg of antisense were performed in the Mtm1^+/y and Mtm1^-/y mice, from 4 to 12 weeks of age. Alongside these injections, mice were fed pellets of diets containing tamoxifen citrate (10 mg/kg) or devoid of tamoxifen. […]

[5] = system: Mtm1^-/y mice; assay: Disease Severity Score (DSS) in Mtm1-/y mice; assay type: in vivo; settings: at 12 weeks old, score 0 (no disease) to 5 (most severe), ASO 3 mg/kg i.p. weekly, tamoxifen 10 mg/kg of diet
Description: as §1, §2, §3
(§4) Weekly i.p. injections of 3 mg/kg of antisense were performed in the Mtm1^+/y and Mtm1^-/y mice, from 4 to 12 weeks of age. […]
Disease Severity Score was calculated to monitor the clinical appearance of mice (n = 10 per group). […]

[6] = system: DNM2; assay: DNM2 protein expression by Western blot in C2C12 cells; assay type: cell-based, mouse; settings: C2C12 cells, 5, 10 or 20 µM (with PBS control, or with ASO-ctrl)
Description: For experiments in mouse immortalized myoblasts (C2C12 cells), the ASOs were electroporated at 2 μM in 2 mm cuvettes, at 150V for 5 ms (one pulse) for 2 million cells in a volume of 400 μl PBS, or in 4mm cuvettes, at [MUT] for 5 ms (one pulse) for 4 million cells in a volume of 800 μl PBS. […] The [MUT] immortalized myoblast cells were cultured in DMEM with 1g/l glucose (Gibco) with 20% FBS (Gibco) + 40 μg/ml Gentamycin (Gibco). The cells were electroporated with either PBS, ASO-ctrl or ASO-Dnm2 at 2 μM, and/or treated with 4-OH-tamoxifen at 20 μM in the cell culture medium, as described in 1.1. The experiment was done in duplicate wells, in 6-well plates. After 24 hrs of treatment, cells were collected and either RNA was extracted for RT-qPCR or protein was extracted for Western Blot. Myoblast C2C12 cells, treated with either (i) PBS + Tamoxifen (20 μM), (ii) ASO ctrl (2 μM), (iii) ASO ctrl (2 μM) + Tamoxifen (20 μM), (iv) ASO-Dnm2 (2 μM) or (v) ASO-Dnm2 (2 μM) + Tamoxifen (20 μM), were lysed in RIPA buffer (Thermo Scientific) supplemented with Halt protease inhibitor cocktail (Thermo Scientific). Protein concentration was determined with the BioRad DC protein Assay kit. Samples were diluted in RIPA buffer, NuPAGE LDS sample buffer and NuPAGE Sample Reducing Agent and denaturated at 70°C for 10 min. […]

[7] = system: Mtm1^-/y mice; assay: Hanging test (whole-body strength) in Mtm1-/y mice; assay type: in vivo; settings: at 12 weeks of age, mean ± SD, cut-off 60 seconds, ASO 3 mg/kg i.p. weekly, tamoxifen 10 mg/kg of diet
Description: as §1, §2
as §3, with “18763-18768). […]” for “18763-18768).”
Whole-body strength of mice was evaluated using the hanging test. […] The latency time for the mouse to fall in the cage was measured, with a cut-off time of 60 seconds. […] The maximum hanging time was recorded. […]

[8] = system: Mtm1^-/y mice; assay: Lifespan / survival of Mtm1-/y mice (XL-CNM model); assay type: in vivo; settings: at the end of the study (12 weeks old), ASO 3 mg/kg i.p. weekly from 4 weeks, tamoxifen 10 mg/kg of diet
Description: as §1, §2, §3
Animals were followed for up to 12 weeks old, with weekly recordings of clinical signs and survival. Treatments were started when disease started to manifest, i.e. at 4 weeks of age.
as §4

In the case of `O=C(NN=Cc1cc(O)c(O)cc1O)c1cc2ccccc2cc1O` [hydroxy-Dynasore, 3-hydroxy-N'-[(2,4,5-trihydroxyphenyl)methylidene]naphthalene-2-carbohydrazide], the IC50 [1] is listed as 2600 nM.
For `COc1cc(-n2c(S)nc3ccccc3c2=O)c(Cl)cc1Cl` [m-divi 1, 3-(2,4-Dichloro-5-methoxyphenyl)-2-sulfanylquinazolin-4(3H)-one], the IC50 [2] is given as 10 µM.
In the case of `CC/C(=C(\c1ccccc1)c1ccc(OCCN(C)C)cc1)c1ccccc1` [tamoxifen, 2-[4-[(Z)-1,2-diphenylbut-1-enyl]phenoxy]-N,N-dimethylethanamine], the “Dnm2 mRNA expression” value [3] is reported as “did not reduce”, the body weight [4] is reported as 15.3 ± 0.4 g and the “Disease Severity Score (DSS), mean score” value [5] is reported as 3.3. The DNM2 protein expression [6] was “did not reduce”, the “holding time (hanging test)” value [7] was 35.3 ± 24.4 s and the survival rate [8] was 70%.

Reference: patent EP4311546A1, “COMBINATION THERAPY FOR MYOPATHIES” (Dynacure, priority 2022, dated 2024)
